Measured values as given in ChEMBL document CHEMBL1129035, “Tyrosine kinase inhibitors. 9. Synthesis and evaluation of fused tricyclic quinazoline analogues as ATP site inhibitors of the tyrosine kinase activity of the epidermal growth factor receptor” (J Med Chem, 1996).
pIC50: −log10 of the molar value.

Columns and labels:
[1] = target: T1, Epidermal growth factor receptor (Homo sapiens, UniProt P00533); assay: Inhibition of tyrosine kinase activity of Epidermal growth factor receptor from human A431 carcinoma cells
[2] = target: T1, Epidermal growth factor receptor; assay: Inhibition of tyrosine kinase activity of Epidermal growth factor receptor from human A431 cells
[3] = target: Fibroblast growth factor receptor (Homo sapiens, UniProt P22607+P11362+P22455+P21802); assay: Inhibition of Fibroblast growth factor receptor; type: protein assay
Insulin receptor = Insulin receptor (Homo sapiens, UniProt P06213); assay: Inhibition of Insulin receptor.
[4] = Inhibition of Platelet-derived growth factor receptor
Protein kinase C (PKC) = assay: Inhibition of Protein kinase C; type: protein assay
[5] = target: Fibroblast growth factor receptor (Mus musculus, UniProt P21803+Q03142+P16092+Q61851); assay: Inhibition of FGF-mediated mitogenesis in Swiss 3T3 cells; type: functional, cell-based
[6] = target: Platelet-derived growth factor receptor (Mus musculus, UniProt P05622+P26618); assay: Inhibition of PDGF-mediated mitogenesis in Swiss 3T3 cells; type: functional, cell-based
[7] = target: Proto-oncogene tyrosine-protein kinase Src (Homo sapiens, UniProt P12931); assay: Inhibition of c-src enzyme.
[8] = Inhibitory activity against v-src enzyme.

T1 sequence (P00533 whole entry): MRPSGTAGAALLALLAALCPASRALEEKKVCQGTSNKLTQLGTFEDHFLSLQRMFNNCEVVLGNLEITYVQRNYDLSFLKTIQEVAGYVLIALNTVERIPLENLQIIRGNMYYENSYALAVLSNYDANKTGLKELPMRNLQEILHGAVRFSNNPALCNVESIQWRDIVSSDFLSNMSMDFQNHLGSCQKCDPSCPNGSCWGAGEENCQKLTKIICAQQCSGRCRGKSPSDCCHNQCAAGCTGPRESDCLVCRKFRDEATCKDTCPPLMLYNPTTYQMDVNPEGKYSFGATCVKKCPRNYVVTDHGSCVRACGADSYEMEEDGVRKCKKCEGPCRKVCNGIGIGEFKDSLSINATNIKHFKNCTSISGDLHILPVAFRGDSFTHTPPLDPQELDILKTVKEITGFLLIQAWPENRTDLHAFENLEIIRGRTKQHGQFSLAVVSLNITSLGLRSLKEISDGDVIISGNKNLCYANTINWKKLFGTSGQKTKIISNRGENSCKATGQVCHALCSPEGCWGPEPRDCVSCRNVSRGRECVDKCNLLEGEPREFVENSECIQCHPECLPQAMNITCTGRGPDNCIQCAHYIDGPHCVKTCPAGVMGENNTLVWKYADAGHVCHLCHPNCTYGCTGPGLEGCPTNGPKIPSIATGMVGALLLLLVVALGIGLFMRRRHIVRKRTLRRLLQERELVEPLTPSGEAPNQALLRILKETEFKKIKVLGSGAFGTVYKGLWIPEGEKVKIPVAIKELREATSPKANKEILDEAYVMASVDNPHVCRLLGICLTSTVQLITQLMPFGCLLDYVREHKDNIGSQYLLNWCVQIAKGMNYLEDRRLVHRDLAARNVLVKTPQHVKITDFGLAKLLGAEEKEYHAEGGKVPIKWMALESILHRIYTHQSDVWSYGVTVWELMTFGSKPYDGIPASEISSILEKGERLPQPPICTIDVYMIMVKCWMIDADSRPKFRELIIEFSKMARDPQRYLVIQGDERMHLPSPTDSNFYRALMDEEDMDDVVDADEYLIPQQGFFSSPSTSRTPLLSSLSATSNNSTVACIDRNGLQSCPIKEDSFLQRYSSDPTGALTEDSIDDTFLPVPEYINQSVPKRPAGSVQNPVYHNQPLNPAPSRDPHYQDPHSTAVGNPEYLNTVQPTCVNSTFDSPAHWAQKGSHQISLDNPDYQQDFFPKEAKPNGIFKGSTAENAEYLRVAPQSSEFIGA
Sequence of Proto-oncogene tyrosine-protein kinase Src (P12931 2-536 limits assumed): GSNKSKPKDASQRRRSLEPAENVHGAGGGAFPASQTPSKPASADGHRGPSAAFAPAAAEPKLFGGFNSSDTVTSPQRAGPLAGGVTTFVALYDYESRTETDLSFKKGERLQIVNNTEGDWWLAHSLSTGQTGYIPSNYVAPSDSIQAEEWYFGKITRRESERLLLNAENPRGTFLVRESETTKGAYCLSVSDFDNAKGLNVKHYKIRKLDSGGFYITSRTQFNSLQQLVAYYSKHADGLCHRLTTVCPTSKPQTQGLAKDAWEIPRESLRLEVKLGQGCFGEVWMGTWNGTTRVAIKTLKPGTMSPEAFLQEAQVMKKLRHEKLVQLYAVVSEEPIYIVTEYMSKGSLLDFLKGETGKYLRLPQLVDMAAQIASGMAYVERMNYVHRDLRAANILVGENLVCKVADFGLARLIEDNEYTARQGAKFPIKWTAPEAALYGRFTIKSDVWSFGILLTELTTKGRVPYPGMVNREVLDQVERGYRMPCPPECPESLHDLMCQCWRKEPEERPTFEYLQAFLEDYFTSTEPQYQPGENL
Sequence of Insulin receptor (P06213 28-758 limits assumed): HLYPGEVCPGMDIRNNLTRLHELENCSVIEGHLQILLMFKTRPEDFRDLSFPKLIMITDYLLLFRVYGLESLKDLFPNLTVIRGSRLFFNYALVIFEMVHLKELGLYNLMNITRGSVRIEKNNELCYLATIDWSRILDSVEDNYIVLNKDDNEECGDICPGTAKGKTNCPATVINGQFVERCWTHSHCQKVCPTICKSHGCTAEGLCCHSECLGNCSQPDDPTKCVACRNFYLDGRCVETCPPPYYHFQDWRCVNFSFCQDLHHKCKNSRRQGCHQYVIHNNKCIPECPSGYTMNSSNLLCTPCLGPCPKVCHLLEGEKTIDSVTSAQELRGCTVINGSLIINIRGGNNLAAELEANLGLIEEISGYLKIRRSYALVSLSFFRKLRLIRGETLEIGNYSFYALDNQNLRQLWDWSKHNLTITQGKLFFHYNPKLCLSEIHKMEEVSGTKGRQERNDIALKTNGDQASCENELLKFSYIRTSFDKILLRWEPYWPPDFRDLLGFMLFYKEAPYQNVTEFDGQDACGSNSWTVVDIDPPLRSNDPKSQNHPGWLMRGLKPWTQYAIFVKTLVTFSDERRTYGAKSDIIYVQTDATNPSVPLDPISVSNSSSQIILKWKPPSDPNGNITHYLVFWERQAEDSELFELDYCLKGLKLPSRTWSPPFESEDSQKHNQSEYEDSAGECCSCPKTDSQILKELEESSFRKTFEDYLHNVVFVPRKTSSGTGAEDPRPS
Sequence of Insulin receptor (P06213 763-1382 limits assumed): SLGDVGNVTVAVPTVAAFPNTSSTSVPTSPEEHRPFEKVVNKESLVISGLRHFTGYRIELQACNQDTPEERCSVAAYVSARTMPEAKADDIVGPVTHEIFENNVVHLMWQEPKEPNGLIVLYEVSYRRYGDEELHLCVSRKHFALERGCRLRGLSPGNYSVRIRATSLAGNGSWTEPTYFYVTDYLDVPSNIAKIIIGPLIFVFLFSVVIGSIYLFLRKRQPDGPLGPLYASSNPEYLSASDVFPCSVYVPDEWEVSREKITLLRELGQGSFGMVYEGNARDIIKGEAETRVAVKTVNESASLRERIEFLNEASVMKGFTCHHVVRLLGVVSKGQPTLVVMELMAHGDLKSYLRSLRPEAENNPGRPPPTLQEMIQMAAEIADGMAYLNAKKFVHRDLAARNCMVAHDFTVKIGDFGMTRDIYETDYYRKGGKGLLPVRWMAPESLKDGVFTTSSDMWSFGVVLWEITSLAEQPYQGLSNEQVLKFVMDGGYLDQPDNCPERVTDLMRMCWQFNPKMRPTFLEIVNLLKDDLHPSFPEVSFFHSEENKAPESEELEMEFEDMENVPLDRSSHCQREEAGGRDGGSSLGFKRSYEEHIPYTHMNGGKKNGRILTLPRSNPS

SMILES	pIC50 [1]	pIC50 [2]	also measured
Brc1cccc(Nc2ncnc3ccc4cc[nH]c4c23)c1	8.91		
Brc1cccc(Nc2ncnc3c2ccc2[nH]cnc23)c1	6.57		
CN(C)CCn1cnc2cc3c(Nc4cccc(Br)c4)ncnc3cc21		7.66	
CN(C)CCn1cnc2cc3ncnc(Nc4cccc(Br)c4)c3cc21		8.88	
Brc1cccc(Nc2ncnc3cc4ncsc4cc23)c1	7.36		
Brc1cccc(Nc2ncnc3cc4[nH]ccc4cc23)c1	9.36		
CN(C)CCn1cnc2c(Cl)c3c(Nc4cccc(Br)c4)ncnc3cc21		6.69	
Brc1cccc(Nc2ncnc3cc4ccccc4cc23)c1	11.52		
Brc1cccc(Nc2ncnc3cc4[nH]cnc4cc23)c1			IC50 [3]: > 50000 nM; pIC50 (Insulin receptor): < 4.30; pIC50 [4]: < 4.30; IC50 (Protein kinase C (PKC)): > 50000 nM; IC50 [5]: > 50000 nM; pIC50 [6]: < 4.30; pIC50 [7]: < 4.30; pIC50 [8]: < 4.30

More lines, main results first:

pIC50 [1]	pIC50 [2]	SMILES	also measured
	8.39	Brc1cccc(Nc2ncnc3cc4[nH]nnc4cc23)c1	
11.00		Cn1cnc2cc3ncnc(Nc4cccc(Br)c4)c3cc21	
	9.47	Brc1cccc(Nc2ncnc3cc4cn[nH]c4cc23)c1	
	9.36	Brc1cccc(Nc2ncnc3cc4[nH]ncc4cc23)c1	
9.54		Cc1nc2cc3ncnc(Nc4cccc(Br)c4)c3cc2[nH]1	
